Here are results for one compound from ChEMBL document CHEMBL1123525, “Synthesis and biological activities of 5-deaza analogues of aminopterin and folic acid” (1986).

One assay concerns P388. In words: Compound was evaluated for inhibitory activity against P-388 leukemic cells in vitro; Range 1.8x10E-8 to 2x10E-7 M. The note with it: Mus musculus, read-out: ID50 (the source's name). The class given is functional.
The next assay has as its system L1210. In words: Compound was evaluated for inhibitory activity against L-1210 leukemic cells in vitro; Range 1.8x10E-8 to 2x10E-7 M. The class given is functional. The note with it: Mus musculus, read-out: ID50 (the source's name).

With `Cc1c(CNc2ccc(C(=O)NC(CCC(=O)O)C(=O)O)cc2)cnc2nc(N)nc(N)c12` (configuration not stated), the IC50 with P388 and with L1210 was 200 nM throughout.
